According to US5556744A, “Methods and compositions for diagnosing and treating certain HIV infected patients” (The Trustees of the University of Pennsylvania, priority 1994, dated 1996):

Columns and labels:
[1] = tested on: maternal HIV+ sera (antibodies); experiment: RIA / ELISA binding of maternal HIV+ sera to gp120 and gp41 peptides (Example 3); set-up: species or system human
Outline: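 Peptides were coated at 10 μg/ml in carbonate buffer pH 9.6 and blocked with 1% BSA. Sera at 1:50 and 1:500 were incubated overnight at 4°C and detected with ¹²⁵I anti-human IgG (RIA) or HRP/TMB at OD450 (ELISA). Specific binding was taken as peptide minus no-peptide wells, scored as a ratio to normal human serum.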

[2] = tested on: HIV-1 infected cells (MN isolate); experiment: Anti-syncytial assay (inhibition of HIV-1 MN syncytium formation, SupT1 target cells); type: cell-based; conditions: sera which bound the peptide
From the text: The H9 cell line (a cutaneous T lymphoma line) infected by HIV-IIIB [ATCC CRL 8543] was used in the neutralization assay. The H9 cell line infected by HIV-MN was used in the anti-syncytial assays. SupT1 and Hut78 cells were used as the target cell lines for the anti-syncytial and neutralization assays. All cell lines were obtained from the National Institutes of Health AIDS Repository (Bethesda, Md.).
To analyze the effect of the maternal serum samples on HIV-1 fusion, SupT1 cells were used as target cells in an anti-syncytial assay. Dilutions of the different maternal serum samples were made in 96 well plates in RPMI 1640 media containing 10% fetal calf serum at final dilutions of 1:4, 1:8, 1:16, 1:32, 1:64, 1:128, 1:256 or 1:512. HIV-1 infected cells (MN isolate) were then plated in the wells at a density of approximately 10^4 cells per well. SupT1 target cells were then added at 5×10^5 /well and the number of syncytia are determined after 3 days of incubation. Inhibition of syncytium formation by a serum sample was considered significant if the dilution which yielded a 50% reduction in the number of syncytia when compared to control was greater than 1:32. The average number of syncytia in the control (normal human serum) wells at the above dilutions were: 45.5, 48.5, 44, 48, 48.5, 41.5, 42 and 45.5 respectively.

TLPCASDAKAYDTEV [Peptide 93] was tested, and the “Number of maternal sera binding to peptide” value ([1]; 20 maternal sera) was “six”, the “Binding of maternal sera to peptide (in words)” value ([1]; Example 3) was “Several maternal serum samples had reactivity” and the “Binding of maternal HIV+ serum to peptide (sera/NHS ratio)” value (“Binding … (sera/NHS ratio)” below) ([1]; Serum No. 1, Non-Transmission Group) was “++ (which value is greater than 3)”. For the same sequence, the “Binding … (sera/NHS ratio)” value ([1]; Serum No. 2, Non-Transmission Group) was “- (specific OD450 or cpm of sera sample binding to peptide divided by the specific OD450 or cpm of NHS sample binding to peptide, which value is less than 2)”, the “Binding … (sera/NHS ratio)” value ([1]; Serum No. 3, Non-Transmission Group) was “- (specific OD450 or cpm of sera sample binding to peptide divided by the specific OD450 or cpm of NHS sample binding to peptide, which value is less than 2)” and the “Binding … (sera/NHS ratio)” value ([1]; Serum No. 4, Transmission Group) was “++ (which value is greater than 3)”. The “Binding … (sera/NHS ratio)” value ([1]; Serum No. 5, Transmission Group) was “- (specific OD450 or cpm of sera sample binding to peptide divided by the specific OD450 or cpm of NHS sample binding to peptide, which value is less than 2)”, the “Binding … (sera/NHS ratio)” value ([1]; Serum No. 6, Non-Transmission Group) was “+ (which value is between 2 to 3)” and the “Binding … (sera/NHS ratio)” value ([1]; Serum No. 7, Non-Transmission Group) was “++ (which value is greater than 3)”. The “Binding … (sera/NHS ratio)” value ([1]; Serum No. 8, Non-Transmission Group) was “+ (which value is between 2 to 3)”, the “Binding … (sera/NHS ratio)” value ([1]; Serum No. 9, Non-Transmission Group) was “- (specific OD450 or cpm of sera sample binding to peptide divided by the specific OD450 or cpm of NHS sample binding to peptide, which value is less than 2)” and the “Binding … (sera/NHS ratio)” value ([1]; Serum No. 10, Transmission Group) was “- (specific OD450 or cpm of sera sample binding to peptide divided by the specific OD450 or cpm of NHS sample binding to peptide, which value is less than 2)”. The “Binding … (sera/NHS ratio)” value ([1]; Serum No. 11, Non-Transmission Group) was “- (specific OD450 or cpm of sera sample binding to peptide divided by the specific OD450 or cpm of NHS sample binding to peptide, which value is less than 2)”, the “Binding … (sera/NHS ratio)” value ([1]; Serum No. 12, Non-Transmission Group) was “- (specific OD450 or cpm of sera sample binding to peptide divided by the specific OD450 or cpm of NHS sample binding to peptide, which value is less than 2)” and the “Binding … (sera/NHS ratio)” value ([1]; Serum No. 13, Transmission Group) was “- (specific OD450 or cpm of sera sample binding to peptide divided by the specific OD450 or cpm of NHS sample binding to peptide, which value is less than 2)”. For the same sequence, the “Binding … (sera/NHS ratio)” value ([1]; Serum No. 14, Transmission Group) was “- (specific OD450 or cpm of sera sample binding to peptide divided by the specific OD450 or cpm of NHS sample binding to peptide, which value is less than 2)”, the “Binding … (sera/NHS ratio)” value ([1]; Serum No. 15, Transmission Group) was “- (specific OD450 or cpm of sera sample binding to peptide divided by the specific OD450 or cpm of NHS sample binding to peptide, which value is less than 2)” and the “Binding … (sera/NHS ratio)” value ([1]; Serum No. 16, Non-Transmission Group) was “+ (which value is between 2 to 3)”. For the same sequence, the “Binding … (sera/NHS ratio)” value ([1]; Serum No. 17, Non-Transmission Group) was “- (specific OD450 or cpm of sera sample binding to peptide divided by the specific OD450 or cpm of NHS sample binding to peptide, which value is less than 2)”, the “Binding … (sera/NHS ratio)” value ([1]; Serum No. 18, Non-Transmission Group) was “- (specific OD450 or cpm of sera sample binding to peptide divided by the specific OD450 or cpm of NHS sample binding to peptide, which value is less than 2)” and the “Binding … (sera/NHS ratio)” value ([1]; Serum No. 19, Transmission Group) was “- (specific OD450 or cpm of sera sample binding to peptide divided by the specific OD450 or cpm of NHS sample binding to peptide, which value is less than 2)”. For the same sequence, the “Binding … (sera/NHS ratio)” value ([1]; Serum No. 20, Non-Transmission Group) was “- (specific OD450 or cpm of sera sample binding to peptide divided by the specific OD450 or cpm of NHS sample binding to peptide, which value is less than 2)”, the “Number of binding maternal sera from the non-transmission group” value ([1]; non-transmission group (13 sera)) was 5 and the “Percent of binding maternal sera from the non-transmission group” value ([1]; of the sera which bound) was 83%. For the same sequence, the “Percent of binding maternal sera from the transmission group” value ([1]; of the sera which bound) was 17%, the “Number of binding maternal sera from the transmission group” value ([1]; vertical transmission group (7 sera)) was 1 and the “Number of samples which bound the peptide and possessed anti-syncytial activity” value [2] was 6. The “Percent of samples which bound the peptide and possessed anti-syncytial activity” value [2] was 100%.
